We go through three molecules from US20090286836A1, “Novel Compounds” (priority 2008, published 2009).

Each structure is given as a SMILES string. Structures can show the parent of a compound that is named as a salt.

The target of one assay is T1, human NK3 receptor (Homo sapiens, UniProt P29371).
T1 construct: expressed in transfected cells; host or cells: human U2OS cells transiently transduced with recombinant BacMam virus
T1 sequence (P29371 1-465): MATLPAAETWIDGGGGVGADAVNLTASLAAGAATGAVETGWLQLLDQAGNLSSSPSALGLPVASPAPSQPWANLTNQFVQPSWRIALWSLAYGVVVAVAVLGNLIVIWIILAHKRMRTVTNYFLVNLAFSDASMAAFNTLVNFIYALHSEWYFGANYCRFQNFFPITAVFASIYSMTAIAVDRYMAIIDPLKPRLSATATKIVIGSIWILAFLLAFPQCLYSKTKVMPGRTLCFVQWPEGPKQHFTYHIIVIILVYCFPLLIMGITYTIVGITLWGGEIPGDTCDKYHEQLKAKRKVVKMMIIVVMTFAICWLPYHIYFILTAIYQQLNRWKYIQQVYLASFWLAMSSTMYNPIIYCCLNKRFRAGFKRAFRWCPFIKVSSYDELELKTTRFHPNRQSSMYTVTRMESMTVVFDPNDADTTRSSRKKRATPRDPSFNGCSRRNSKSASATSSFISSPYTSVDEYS
In words: NK functional potency, FLIPR calcium release in U2OS cells (NKB as ligand). The format is cell-based. The settings on record: BacMam human NK3, average of at least two determinations, read-out: NK3 pKi (functional potency, fpKi) (converted). The text has this:
(§1) Compounds of the invention were further characterised in a functional assay using FLIPR technology for the determination of their effect to inhibit the intracellular calcium release induced by interaction of NK receptors with its perspective ligands. Human U2OS cells transiently transduced with recombinant BacMam virus expressing human NK1, NK2 and NK3 receptors were used in the studies (see J. P. Condreay et al, Proc. Natl. Acad. Sci. USA 1999, 96(1): 127-132). Briefly, U2OS cells were harvested from tissue culture flasks, re-suspended to a cell density of 200-300K/ml and mixed with recombinant BacMam virus carrying NKR gene in a virus/cell ratio of 1% (v/v). 10K-15K cells/well were then seeded in 384-well Greiner bio-one plate in culture medium (DMEM with 10% FBS), incubated overnight in 5% CO2 at 37° C. After aspirating the medium, cells were loaded 18-24 hr later with cytoplasmic calcium indicator Fluo-4 Calcium 3 dye (Molecular Devices Co.) in 30 uL/well buffer (Hank's balanced salts with 20 mM Hepes) and incubated in CO2 at 37° C. for 60 minutes. 10 uL/well assay buffer (Hank's balanced salts with 20 mM Hepes) containing different concentrations of compounds were then added to the cells for 30 minutes incubation at 37° C. Finally, 10 uL/well of NKR ligands in assay buffer containing 0.1% BSA was added to the cells and fluorescence signal read on a FLIPR system. Substance P, NKA and NKB peptides were used as the ligands for NK1, NK2 and NK3 receptor, respectively. IC50 values of each compound were determined by an 11-point 3×-dilution inhibition curve. The potency each antagonist (fpKi) was calculated from pIC50 by the Cheng-Prusoff equation using EC50 of ligand determined in a separate experiment.
(§2) The compounds of Example 11, Examples 2, 4 and 6 were tested in the NK functional potency assay.

The next assay has as its target human NK1 receptor (Homo sapiens, UniProt P25103). In words: NK functional potency, FLIPR calcium release in U2OS cells (Substance P as ligand). Also noted: expressed in transfected cells; host or cells: human U2OS cells transiently transduced with recombinant BacMam virus. The settings on record: BacMam human NK1, average of at least two determinations, read-out: NK1 pKi (functional potency, fpKi) (converted). The format is cell-based.
Source text: as §1, §2

Sequence of human NK1 receptor (P25103 whole entry): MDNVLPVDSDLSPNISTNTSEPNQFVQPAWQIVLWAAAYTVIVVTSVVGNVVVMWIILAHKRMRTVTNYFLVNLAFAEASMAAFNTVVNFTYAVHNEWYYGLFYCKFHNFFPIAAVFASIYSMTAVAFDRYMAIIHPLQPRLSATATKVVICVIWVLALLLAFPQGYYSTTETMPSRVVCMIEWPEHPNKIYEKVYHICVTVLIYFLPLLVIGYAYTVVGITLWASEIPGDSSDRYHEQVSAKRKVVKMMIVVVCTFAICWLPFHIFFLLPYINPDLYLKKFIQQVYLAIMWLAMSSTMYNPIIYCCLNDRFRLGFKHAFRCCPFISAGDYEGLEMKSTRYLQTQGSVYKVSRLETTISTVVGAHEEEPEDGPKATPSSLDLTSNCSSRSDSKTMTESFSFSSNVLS

Take `Cc1cc(F)ccc1-c1cc([C@H]2CC[C@](C)(C(N)=O)N2)ncc1N(C)C(=O)C(C)(C)c1cc(C(F)(F)F)cc(C(F)(F)F)c1` [Example 2, (5R)-5-[5-[{2-[3,5-bis(trifluoromethyl)phenyl]-2-methylpropanoyl}(methyl)amino]-4-(4-fluoro-2-methylphenyl)-2-pyridinyl]-2-methyl-D-prolinamide hydrochloride]: the Ki at human NK3 receptor was 79.4 nM; on human NK1 receptor, < 0.17 nM.
Take `Cc1cc(F)ccc1-c1cc([C@H]2CC[C@@](C)(C(N)=O)N2)ncc1N(C)C(=O)C(C)(C)c1cc(C(F)(F)F)cc(C(F)(F)F)c1` [Example 4, (5R)-5-[5-[{2-[3,5-bis(trifluoromethyl)phenyl]-2-methylpropanoyl}(methyl)amino]-4-(4-fluoro-2-methylphenyl)-2-pyridinyl]-2-methyl-L-prolinamide hydrochloride]: the Ki is 63.1 nM at human NK3 receptor and < 0.17 nM on human NK1 receptor.
With `Cc1cc(F)ccc1-c1cc([C@@H]2CC[C@](C)(C(N)=O)N2)ncc1N(C)C(=O)C(C)(C)c1cc(C(F)(F)F)cc(C(F)(F)F)c1` [Example 6, (5S)-5-[5-[{2-[3,5-bis(trifluoromethyl)phenyl]-2-methylpropanoyl}(methyl)amino]-4-(4-fluoro-2-methylphenyl)-2-pyridinyl]-2-methyl-D-prolinamide hydrochloride], the Ki is 158 nM at human NK3 receptor and < 0.17 nM at human NK1 receptor.
